The values below are quoted from earlier work in US20150182483A1 (priority 2014, published 2015).

The conditions of data set [1]: pH at which two predominant microspecies have net charge of zero.
The conditions of data set [2]: humans.
For data set [3] the following is noted: prior art, Kalogeropoulou et al. 2009.
For data set [4] the following is noted: intravenous, subjects.
Data set [5] concerns chemical diabetes induced by streptozotocin.
[6] abbreviates: D-lysine treatment with streptozotocin diabetes.

Turning to `NCCCC[C@H](N)C(=O)O` [L-lysine], the “Isoelectric point (pI)” value in data set [1] was “approximately 9.7”. Besides, the “Proposed upper limit (LD 50 not firmly established)” value in data set [2] is reported as 300-400 mg×kg^−1xd^−1. For the same compound, the “Response (hypoglycemic effect)” value in data set [3] is on record as “Lower blood glucose”. Besides, in data set [4], the “Effect on blood ammonia” value is listed as “without significantly increasing blood ammonia” and the “Effect on blood glucose” value was “lowers blood glucose”.

Take `NCCCC[C@@H](N)C(=O)O` [D-lysine]: in data set [5] (setting [6]), the Blood glucose is 25.1 mmol/L, the Glycated lens proteins is reported as 4.90%, the Glycated serum proteins is on record as 1.4% and the HbA1 is given as 3.0%. Further, the Urinary d-lysine in data set [5] (setting [6]) was 15.9 mmol/L. In addition, in data set [5] (animal model), the Excretion entry is given as “excreted in the urine” and the Nephrotoxicity result is reported as “not nephrotoxic”. Further, in data set [5] (animal model of chemical diabetes induced by streptozotocin), the “non-enzymatic glycation of hemoglobin, lens proteins and serum proteins” value is given as “decrease”.
